# Read-outs that look alike come from different tables or passages of the source.
# Experiments:
# CYP3A4 and CYP2D6 = tested on: CYP3A4 and CYP2D6; parameters: method as in Kim et al., 2013; settings: LC-MS/MS; ref Kim et al., 2013; cited from earlier work
# cyp2d1 [1] = target: T1, cyp2d1 (Rattus norvegicus, UniProt P10633); assay: Effect of poziotinib on cyp2d1 activity in rats (dextromethorphan pharmacokinetics); assay type: in vivo, Sprague-Dawley rats; parameters: from tissue; host or cells: living male Sprague-Dawley rats (whole animal); settings: poziotinib 5 mg/kg oral 7 days, dextromethorphan probe
# T1 sequence (P10633 1-504): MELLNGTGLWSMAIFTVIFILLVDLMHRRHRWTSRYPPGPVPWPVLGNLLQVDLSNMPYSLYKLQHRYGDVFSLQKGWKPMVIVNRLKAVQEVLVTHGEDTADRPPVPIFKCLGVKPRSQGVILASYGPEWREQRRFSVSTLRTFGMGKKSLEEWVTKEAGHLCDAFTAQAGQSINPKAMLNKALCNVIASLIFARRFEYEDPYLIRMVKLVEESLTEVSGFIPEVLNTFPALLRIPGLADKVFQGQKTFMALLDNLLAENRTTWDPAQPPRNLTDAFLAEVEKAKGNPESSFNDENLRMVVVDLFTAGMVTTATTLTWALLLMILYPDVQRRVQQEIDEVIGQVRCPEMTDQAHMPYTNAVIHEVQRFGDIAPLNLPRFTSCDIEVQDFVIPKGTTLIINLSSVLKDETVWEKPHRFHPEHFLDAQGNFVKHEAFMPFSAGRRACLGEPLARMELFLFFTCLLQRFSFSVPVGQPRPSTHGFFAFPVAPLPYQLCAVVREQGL
# Procedure: (§2) Twelve male Sprague-Dawley rats (230 ± 20 g) were randomly divided into treated and control groups, with 6 in each group. […] The supernatant was mixed with 200 μL of acetonitrile and 20 μL of 0.5 μg/ml diazepam (IS), vortexed for 30 s, centrifuged at 13,000 rpm for 5 min, and the supernatant was injected into the UPLC-MS/MS system for analysis.
# (§3) Pharmacokinetic parameters were calculated using DAS software (Version 3.2.8). SPSS software (version 16.0; SPSS Inc., Chicago, IL, United States) was used to analyze the significance of differences between the main pharmacokinetic parameters. p < 0.05 was considered statistically significant. GraphPad (version 8.0; GraphPad Software Inc., San Diego, CA, United States) was used to calculate IC50 and plot the plasma concentration-time curves and inhibition plots (type of inhibition, time- and concentration-dependence).
# cyp2b1 [2] = target: T2, cyp2b1 (Rattus norvegicus, UniProt P00176); assay: Effect of poziotinib on cyp2b1 activity in rats (bupropion pharmacokinetics); assay type: in vivo, Sprague-Dawley rats; parameters: from tissue; host or cells: living male Sprague-Dawley rats (whole animal); settings: poziotinib 5 mg/kg oral 7 days, bupropion probe
# T2 sequence (P00176 1-491): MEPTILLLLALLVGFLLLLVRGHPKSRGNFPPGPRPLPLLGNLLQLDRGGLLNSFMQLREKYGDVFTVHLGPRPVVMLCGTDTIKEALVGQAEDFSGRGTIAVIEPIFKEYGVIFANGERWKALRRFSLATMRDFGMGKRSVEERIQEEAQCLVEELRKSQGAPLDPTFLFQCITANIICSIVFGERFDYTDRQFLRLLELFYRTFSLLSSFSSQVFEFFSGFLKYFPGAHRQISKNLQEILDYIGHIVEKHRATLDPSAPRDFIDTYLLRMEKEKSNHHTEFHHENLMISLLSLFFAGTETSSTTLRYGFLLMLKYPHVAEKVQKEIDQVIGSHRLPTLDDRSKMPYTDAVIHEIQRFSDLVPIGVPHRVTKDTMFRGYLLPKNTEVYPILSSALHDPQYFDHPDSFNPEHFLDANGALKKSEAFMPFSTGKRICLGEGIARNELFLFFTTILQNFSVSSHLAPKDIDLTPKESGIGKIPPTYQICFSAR
# Procedure: as §2, §3
# cyp2c11 [3] = target: T3, cyp2c11 (Rattus norvegicus, UniProt P08683); assay: Effect of poziotinib on cyp2c11 activity in rats (tolbutamide pharmacokinetics); assay type: in vivo, Sprague-Dawley rats; parameters: from tissue; host or cells: living male Sprague-Dawley rats (whole animal); settings: poziotinib 5 mg/kg oral 7 days, tolbutamide probe
# T3 sequence (P08683 1-500): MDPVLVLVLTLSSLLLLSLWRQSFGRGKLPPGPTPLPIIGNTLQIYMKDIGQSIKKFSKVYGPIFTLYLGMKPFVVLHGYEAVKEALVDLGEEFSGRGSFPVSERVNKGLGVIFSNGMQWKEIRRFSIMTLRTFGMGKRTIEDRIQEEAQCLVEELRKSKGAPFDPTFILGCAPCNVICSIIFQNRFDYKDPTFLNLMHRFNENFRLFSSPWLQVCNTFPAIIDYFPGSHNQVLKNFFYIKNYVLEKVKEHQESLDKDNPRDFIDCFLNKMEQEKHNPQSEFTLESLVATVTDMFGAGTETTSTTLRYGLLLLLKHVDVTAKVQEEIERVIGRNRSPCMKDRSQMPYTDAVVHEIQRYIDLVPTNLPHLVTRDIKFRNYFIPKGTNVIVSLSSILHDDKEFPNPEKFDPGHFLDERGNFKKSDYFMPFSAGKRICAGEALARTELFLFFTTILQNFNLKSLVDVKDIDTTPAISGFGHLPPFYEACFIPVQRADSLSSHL
# Procedure: as §2, §3
# cyp2d1 [4] = target: T1, cyp2d1; assay: Cocktail method IC50 in rat liver microsomes, dextromethorphan probe; assay type: in vitro ADME
# Procedure: The cocktail method was employed to analyze the effects of poziotinib on cyp1a2, cyp2b1, cyp2c11, cyp2d1, cyp2e1, and cyp3a1/2. […] Then half-maximal inhibitory concentration (IC50) of poziotinib was determined with all of the CYPs. […]. To this cocktail, 1 mg/ml of RLMs, 100 mM potassium phosphate buffer (pH 7.4), poziotinib (1, 2.5, 5, 10, 25, 50, or 100 μM) were added to obtain a final volume of 200 μL. After pre-incubation of this mixture for 5 min in a shaking water bath at 37°C, 1 mM NADPH was added to start the reaction. The reactions were allowed to proceed for 30 min, after which 200 μL of acetonitrile and 20 μL of IS were added to terminate the reactions. The mixtures were vortexed for 30 s and centrifuged again at 13,000 rpm for 5 min.
# cyp2b1 [5] = target: T2, cyp2b1; assay: Mechanism of inhibition (Lineweaver-Burk plots), bupropion in RLMs; assay type: in vitro ADME; parameters: from tissue; host or cells: rat liver microsomes, prepared in-house
# Procedure: (§1) To elucidate the mechanism of inhibition of cyp2b1 and 2c11 by poziotinib, we examined the interaction of different concentrations of poziotinib with bupropion and tolbutamide, respectively. Poziotinib was preincubated with 1 mg/ml of RLMs and probe substrate in a 37°C shaking water bath for 5 min, following which NADPH was added and incubated for 30 min. The concentrations of poziotinib were 0, 2, 4, 8 and 16 μM for 2b1, 0, 5, 10 20 and 40 μM for 2c11. The concentrations of bupropion were 5, 10, 20, and 40 μM, and the concentrations of tolbutamide were 25, 50, 100, and 200 μM. Poziotinib was incubated with different concentrations of the probe substrates in triplicate. The reactions were carried out, stopped, and processed as described in 2.3. Lineweaver-Burk plots were graphed.
# cyp2c11 [6] = target: T3, cyp2c11; assay: Mechanism of inhibition (Lineweaver-Burk plots), tolbutamide in RLMs; assay type: in vitro ADME; parameters: from tissue; host or cells: rat liver microsomes, prepared in-house
# Procedure: as §1
smiles,measurement,setting,value
C=CC(=O)N1CCC(Oc2cc3c(Nc4ccc(Cl)c(Cl)c4F)ncnc3cc2OC)CC1 [Poziotinib],enzymes producing main metabolites M1 (dihydroxylation) and M2 (demethylation),CYP3A4 and CYP2D6,mainly produced by CYP3A4 and CYP2D6 activity
same,effect on cyp2d1 activity in rats,cyp2d1 [1],no obvious inhibitory effect
same,effect on cyp2b1 activity in rats,cyp2b1 [2],inhibitory effect
same,effect on cyp2c11 activity in rats,cyp2c11 [3],significantly inhibitory effect
same,inhibitory effect on cyp2d1 (in words),cyp2d1 [4],weak inhibition
same,inhibitory effect on cyp2d1 (in words),cyp2d1 [4]; listed as poziotinib,not obvious
same,IC50 at 30 min,"cyp2d1 [4]; pH 7.4, probe dextromethorphan (10 μM), 10 μM dextromethorphan, cocktail, 30 min",62 µM
same,type of inhibition of cyp2b1,cyp2b1 [5]; Lineweaver-Burk plots,competitive
same,Ki,"cyp2b1 [5]; rat liver microsomes, bupropion 5-40 μM, poziotinib 0-16 μM, secondary plot",16.2 µM
same,type of inhibition of cyp2c11,cyp2c11 [6]; Lineweaver-Burk plots,competitive
same,Ki,"cyp2c11 [6]; rat liver microsomes, tolbutamide 25-200 μM, poziotinib 0-40 μM, secondary plot",17.7 µM

# Reference: article PMC7970697, “Inhibition and Induction by Poziotinib of Different Rat Cytochrome P450 Enzymes In Vivo and in an In Vitro Cocktail Method” (Frontiers in Pharmacology, 2021)
